Laboratory results reported in US20170246190A1, “METHODS AND FORMULATION FOR IMPROVING ORAL AVAILABILITY OF CPT-11 WHILE REDUCING CPT-11 INDUCED GASTROINTESTINAL TOXICITY IN CANCER THERAPY” (Johnpro Biotech Inc., priority 2014, published 2017).
Counter-ions that a name gives are not always drawn.

Tests used:
[1] = Oral availability of CPT-11: blood levels of CPT-11 and SN-38 by HPLC in mice bearing HT29 xenograft tumors; format: in vivo, NOD/SCID mice; details: oral CPT-11 40 mg/Kg alone, 4 hrs after ingestion, FIG. 1A
Protocol: (§1) To inoculate tumor, HT29 cells (1×10^6 cells per injection) were injected subcutaneously to lab animals to generate s.c. tumors on day 1, which were allowed to grow to about 5 mm in diameter. Two sets of experiments were conducted.
In the second set of experiment, oral availability of CPT-11 was evaluated. The animals were randomly assigned to 3 groups, in which animals in group 1 (N=5) were on normal diet; animals in group 2 (N=5) received oral CPT-11 treatment (40 mg/Kg), and animals in group 3 (N=5) received a dose of dose of UDCA (20 mg/Kg) on day 1, an hour later, one dose of CPT-11 (40 mg/Kg) and one dose of silymarin (100 mg/Kg) were given. Blood samples were respectively taken at 1, 4, 8 hrs after the combined treatment of CPT-11 and on days 4, and 8; and the level of SN-38 (i.e., an active metabolite of CPT-11) was measured by HPLC. The body weight (BW) of each animal was measured daily.
The animals bearing xenografted s.c. colon tumors were randomly assigned into 3 groups, in which group 1 received no treatment, group 2 received one dose of oral treatment of CPT-11 (40 mg/Kg), and group 3 received UDCA (20 mg/Kg), CPT-11 (40 mg/Kg) and silymarin (100 mg/Kg) via oral ingestion in accordance with procedures described in the “Materials and methods” section. […]

NOD/SCID mice [2] = assay: Histological analysis (H&E) of colon tissues after oral CPT-11 treatment; format: in vivo; details: oral CPT-11 50 mg/Kg, with or without silychristin 10 mg/Kg; FIG. 2
Protocol: as §1
(§2) In the first set of experiment, effects of silymarin on the reduction of CPT-11 induced bloody stool were investigated. […] At the end of the experiments, the animals were sacrificed and colon tissues from each animals were stained and used in histological analysis.

NOD/SCID mice [3] = assay: Bloody diarrhea evaluation by daily naked-eye observation; format: in vivo; details: oral CPT-11 50 mg/Kg and/or silychristin 10 mg/Kg
Protocol: as §1, §2

E. Coli βG (eβG) = E. Coli βG (eβG) (Escherichia coli, UniProt P05804); assay: Beta-glucuronidase activity with fluorogenic substrate MUG, E. Coli enzyme; format: biochemical; details: FIG. 3A
E. Coli βG (eβG), sequence (P05804 whole entry): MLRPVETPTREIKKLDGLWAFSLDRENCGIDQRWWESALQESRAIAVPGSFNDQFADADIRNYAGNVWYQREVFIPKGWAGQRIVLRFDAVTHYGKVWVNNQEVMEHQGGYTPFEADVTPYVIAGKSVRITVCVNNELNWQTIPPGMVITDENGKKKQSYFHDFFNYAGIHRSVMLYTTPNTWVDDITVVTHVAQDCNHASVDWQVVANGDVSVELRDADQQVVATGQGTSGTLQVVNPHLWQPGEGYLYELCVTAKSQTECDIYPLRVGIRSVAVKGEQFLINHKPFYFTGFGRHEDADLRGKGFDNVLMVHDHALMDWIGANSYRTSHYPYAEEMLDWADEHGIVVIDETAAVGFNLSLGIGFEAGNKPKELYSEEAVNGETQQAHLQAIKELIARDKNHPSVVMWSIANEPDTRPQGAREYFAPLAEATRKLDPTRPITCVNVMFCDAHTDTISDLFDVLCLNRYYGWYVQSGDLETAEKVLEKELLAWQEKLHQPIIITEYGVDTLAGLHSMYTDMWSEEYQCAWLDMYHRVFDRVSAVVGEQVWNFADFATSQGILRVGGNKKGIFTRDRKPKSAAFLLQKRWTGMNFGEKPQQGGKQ
Protocol: (§3) The βG activity in solution was determined with the fluorogenic substrate 4-methylumbellifery β-D-glucuronide (MUG), in which the non-fluorescent MUG would give rise to glucuronic acid and a highly fluorescent product, 4-methylumbelliferone (4-MU), at higher pH, after being converted by βG. The reaction can be quenched by the addition of a basic solution of sodium carbonate, and pH may be adjusted to quantitate the fluorescent signals. […] After 10 minutes, the assays were quenched at 15 second intervals by adding 1.9 ml of the carbonate stopping buffer. The samples were subject to fluorescence measurement, and the data was converted to nmol MUG hydrolyzed as an indication of GUS enzyme activity.
(§4) Silymarin is known to be a mixture of flavonolignans extracted from blessed milk thistle (Silybum marianum). […] Results are illustrated in FIGS. 3A and 3B.

human βG (hβG) = biological target: T1, human βG (hβG) (Homo sapiens, UniProt P08236); assay: Beta-glucuronidase activity with fluorogenic substrate MUG, human enzyme; format: biochemical; details: 8 μM; FIG. 3B
T1 sequence (P08236 23-651): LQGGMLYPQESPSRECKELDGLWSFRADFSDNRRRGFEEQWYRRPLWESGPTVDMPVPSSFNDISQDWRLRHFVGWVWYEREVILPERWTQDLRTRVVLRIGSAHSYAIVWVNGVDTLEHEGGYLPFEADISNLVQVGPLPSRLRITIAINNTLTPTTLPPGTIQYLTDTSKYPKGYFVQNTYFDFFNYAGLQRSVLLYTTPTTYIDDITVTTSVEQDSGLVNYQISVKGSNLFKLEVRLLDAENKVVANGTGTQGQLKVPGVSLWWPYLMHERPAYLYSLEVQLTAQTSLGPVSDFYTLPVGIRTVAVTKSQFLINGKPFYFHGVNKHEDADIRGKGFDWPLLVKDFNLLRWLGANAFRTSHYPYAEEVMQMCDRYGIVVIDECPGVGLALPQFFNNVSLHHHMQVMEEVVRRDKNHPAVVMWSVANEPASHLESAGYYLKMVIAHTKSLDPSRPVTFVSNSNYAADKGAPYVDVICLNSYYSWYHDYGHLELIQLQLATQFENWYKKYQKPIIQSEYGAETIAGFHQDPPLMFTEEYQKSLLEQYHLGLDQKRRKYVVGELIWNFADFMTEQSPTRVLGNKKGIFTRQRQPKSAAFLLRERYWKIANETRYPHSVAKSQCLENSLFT
Protocol: as §3, §4

normal cells HEK-293 = assay: Cell viability assay (MTS) on normal cells; format: cell-based, human; details: 100 μM; FIG. 4
Protocol: Cell line used in the present disclosure were human colon carcinoma cell line HT29, and human embryonic kidney cell line HEK-293. HT29 cells were cultured and maintained in Dulbecco's modified Eagle media (DMEM) supplemented with 10% heat inactivated fetal bovine serum (FBS), 50 units/mL penicillin G, 50 μg/mL streptomycin (pH 7.4), while HEK-293 cells were cultured in complete SFMII growth medium supplemented with 4mM L-glutamine. Both cell lines were maintained in humidified environment comprising 5% CO2/95% air at 37° C.
Cell were cultured at a density of 1.0×10^5 cells/well in 96-well round-bottom plates (Falcon, UK) containing 200 μL of culturing medium. Cells were maintained for two days at 37° C. in a humidified, 5% CO2 atmosphere. The proliferation rate of the cells was determined by MTS assay (CellTiter 96 aqueous one-solution cell proliferation assay; Promega, Wis., USA). Forty microliters of CellTiter 96 aqueous one-solution were added to each well. After incubation for 4hrs, the UV absorbance of the solution was measured at a wavelength of 490 nm. All MTS assays were performed in triplicate.

blood level of CPT-11 [1] | Compound | colon tissue damage (morphology and integrity of epithelial cells), H&E histology (NOD/SCID mice [2]) | number of animals that exhibited bloody stool / bloody diarrhea (NOD/SCID mice [3]) | inhibition of eβG activity (E. Coli βG (eβG); 8 μM) [%] | eβG activity (E. Coli βG (eβG); 40 μM) | effect on the activity of hβG (human βG (hβG)) | effect on normal cells' activities (viability of HEK-293) (normal cells HEK-293)
undetectable level | CCc1c2c(nc3ccc(OC(=O)N4CCC(N5CCCCC5)CC4)cc13)-c1cc3c(c(=O)n1C2)COC(=O)[C@]3(O)CC [CPT-11, Irinotecan hydrochloride] | severe damage | 4 animals | – | – | – | –
– | COc1cc([C@@H]2Oc3c(O)cc([C@H]4Oc5cc(O)cc(O)c5C(=O)[C@@H]4O)cc3[C@H]2CO)ccc1O [silychristin] | – | none | ~80 | negligible level | without affecting | did not adversely affect
